# Measurements from article PMC6021502, “Cannabigerol Action at Cannabinoid CB1 and CB2 Receptors and at CB1–CB2 Heteroreceptor Complexes” (Frontiers in Pharmacology, 2018).
# “Also recorded” adds a separate entry of the source. Where two headings read alike, the source gives them in different places.
# Assays:
# [1] = system: T1, CB2R; assay: β-arrestin 2 recruitment (BRET) in HEK-293T cells; assay type: cell-based, human
# T1 construct: expressed in transfected cells; host or cells: HEK-293T, transient transfection (PEI)
# Description: (§1) HEK-293T cells were grown in DMEM medium (Gibco, Paisley, Scotland, United Kingdom) supplemented with 2 mM L-glutamine, 100 U/mL penicillin/streptomycin, MEM Non-Essential Amino Acids Solution (1/100) and 5% (v/v) heat inactivated Foetal Bovine Serum (FBS) (Invitrogen, Paisley, Scotland, United Kingdom). […] Cells were transiently transfected with the PEI (Polyethylenimine, Sigma, St. Louis, MO, United States) method as previously described ([Medrano et al., 2017]; [Navarro et al., 2018b]) and used for functional assays 48 h later (unless otherwise stated).
# (§2) Arrestin recruitment was determined as previously described ([Medrano et al., 2017]; [Navarro et al., 2018b]). Briefly, BRET experiments were performed in HEK-293T cells 48 h after transfection with the cDNA corresponding to the CB2R-YFP or CB1R-YFP and 1 μg cDNA corresponding to β-arrestin 2-Rluc. Cells (20 μg protein) were distributed in 96-well microplates (Corning 3600, white plates with white bottom) and were incubated with CBG for 15 min and stimulated with the agonist for 10 min prior the addition of 5 μM coelenterazine H (Molecular Probes, Eugene, OR, United States). After 1 min of adding coelenterazine H, BRET between β-arrestin 2-Rluc and receptor-YFP was determined and quantified. The readings were collected using a Mithras LB 940 (Berthold Technologies, Bad Wildbad, Germany) that allows the integration of the signals detected in the short-wavelength filter at 485 nm and the long-wavelength filter at 530 nm. To quantify protein-RLuc expression luminescence readings were also performed 10 min of adding 5 μM coelenterazine H.
# [2] = system: T2, CB1R; assay: β-arrestin 2 recruitment (BRET) in HEK-293T cells; assay type: cell-based, human
# T2 construct: expressed in transfected cells; host or cells: HEK-293T, transient transfection (PEI)
# Description: as §1, §2
# [3] = molecular target: T3, human CB1 receptor (Homo sapiens, UniProt P21554); assay: biochemical; assay type: binding
# T3 construct: expressed in transfected cells; membranes
# T3 sequence (P21554 whole entry): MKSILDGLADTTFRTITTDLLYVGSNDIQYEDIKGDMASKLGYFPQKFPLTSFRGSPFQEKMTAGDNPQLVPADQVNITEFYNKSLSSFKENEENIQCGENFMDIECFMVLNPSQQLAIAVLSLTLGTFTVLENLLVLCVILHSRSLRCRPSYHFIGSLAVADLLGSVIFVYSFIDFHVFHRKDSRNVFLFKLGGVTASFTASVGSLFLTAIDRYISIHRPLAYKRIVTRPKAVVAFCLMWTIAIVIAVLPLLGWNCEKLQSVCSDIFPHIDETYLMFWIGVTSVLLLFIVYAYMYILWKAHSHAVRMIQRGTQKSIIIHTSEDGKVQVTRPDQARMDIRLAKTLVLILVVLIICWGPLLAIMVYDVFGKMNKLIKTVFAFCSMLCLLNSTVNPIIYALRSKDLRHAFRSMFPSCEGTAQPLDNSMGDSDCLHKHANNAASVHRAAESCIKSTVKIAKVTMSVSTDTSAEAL
# [4] = system: α2-adrenoceptor; design: method as in Cascio et al., 2010; settings: ref Cascio et al., 2010; read-out: EC50 as α2-adrenoceptor agonist; cited from earlier work
# [5] = system: TRPM8 channels; design: method as in De Petrocellis et al., 2011; settings: ref De Petrocellis et al., 2011; read-out: IC50, antagonist of TRPM8 channels; cited from earlier work
# [6] = system: T4, CB1R and CB2R (CB1–CB2 heteroreceptor complexes); assay: Label-free dynamic mass redistribution (DMR) in HEK-293T cells co-expressing both receptors; assay type: cell-based, human
# T4 construct: expressed in transfected cells; host or cells: HEK-293T, transient co-transfection (PEI)
# Description: as §1
# Cell mass redistribution induced upon receptor activation was detected by illuminating the underside of a biosensor with polychromatic light and measuring the changes in the wavelength of the reflected monochromatic light. The magnitude of this wavelength shift (in picometers) is directly proportional to the amount of DMR. […] Hereafter, the sensor plate was scanned and a baseline optical signature was recorded for 10 min before adding 10 μL of CBG for 30 min followed by the addition of 10 μL of specific agonists; all test compounds were dissolved in assay buffer. The cell signaling signature was determined using an EnSpire® Multimode Plate Reader (PerkinElmer, Waltham, MA, United States) by a label-free technology. Then, DMR responses were monitored for at least 5,000 s. Results were analyzed using EnSpire Workstation Software v 4.10.
# [7] = system: T4, CB1R and CB2R (CB1–CB2 heteroreceptor complexes); assay: cAMP determination in HEK-293T cells co-expressing both receptors; assay type: cell-based, human
# Description: as §1
# Signaling experiments have been performed as previously described ([Navarro et al., 2010], [2016], [2018b]; [Hinz et al., 2018]). Two hours before initiating the experiment, HEK-293T cell-culture medium was replaced by serum-starved DMEM medium. Then, cells were detached, resuspended in growing medium containing 50 μM zardaverine and placed in 384-well microplates (2,500 cells/well). Cells were pretreated (15 min) with CBG -or vehicle- and stimulated with agonists (15 min) before adding 0.5 μM forskolin or vehicle. Readings were performed after 15 min incubation at 25°C. […] Fluorescence at 665 nm was analyzed in a PHERAstar Flagship microplate reader equipped with an HTRF optical module (BMG Lab Technologies, Offenburg, Germany).
# [8] = molecular target: T5, human CB2 receptor (Homo sapiens, UniProt P34972); assay: [3H]-WIN-55,212-2 competition binding, CHO membranes
# T5 construct: expressed in transfected cells; membranes
# T5 sequence (P34972 whole entry): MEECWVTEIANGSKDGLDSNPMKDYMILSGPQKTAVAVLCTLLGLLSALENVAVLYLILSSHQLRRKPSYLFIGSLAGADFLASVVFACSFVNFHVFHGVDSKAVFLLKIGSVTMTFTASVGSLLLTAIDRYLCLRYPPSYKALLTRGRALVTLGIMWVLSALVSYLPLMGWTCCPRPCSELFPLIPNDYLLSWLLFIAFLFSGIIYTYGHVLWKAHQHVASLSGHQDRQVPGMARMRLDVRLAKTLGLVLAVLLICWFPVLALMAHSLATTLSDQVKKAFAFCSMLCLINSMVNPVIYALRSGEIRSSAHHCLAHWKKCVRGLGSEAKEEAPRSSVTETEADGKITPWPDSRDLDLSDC
# [9] = system: PPARγ transcriptional activity; design: method as in Granja et al., 2012; Nadal et al., 2017; settings: high concentrations, 10–25 μM range; ref Granja et al., 2012; Nadal et al., 2017; cited from earlier work
# [10] = system: T4, CB1R and CB2R (CB1–CB2 heteroreceptor complexes); assay: β-arrestin 2 recruitment (BRET) in HEK-293T cells co-expressing both receptors; assay type: cell-based, human
# Description: as §1
# as §2, with “Cells (20 μg protein) were distributed in 96-well microplates (Corning 3600, white plates with white bottom) and were incubated with CBG for 15 min and stimulated with the agonist for 10 min prior the addition of 5 μM coelenterazine H (Molecular Probes, Eugene, OR, United States).” left out
# [11] = molecular target: TRPA1; settings: ref De Petrocellis et al., cited from earlier work
# [12] = system: AEA cell uptake; design: method as in De Petrocellis et al., 2011; settings: ref De Petrocellis et al., 2011; read-out: Ki, inhibitor of AEA cell uptake; cited from earlier work
# [13] = system: macrophages; design: method as in Giacoppo et al., 2017; settings: in vitro; blocked by AM630, not by SR141716A; ref Giacoppo et al., 2017; cited from earlier work
# [14] = molecular target: T3, human CB1 receptor; assay: biochemical; assay type: binding; settings: radioligand 0.3 nM [3H]-CP-55940, CHO membranes
# [15] = 100 nM CBG pretreatment, cells co-expressing CB1R and CB2R
# [16] = CBG alone, dose-effect, cells expressing CB1R and CB2R
structure (smiles),measurement,setting,value
"CCCCCc1cc(O)c(C/C=C(\C)CCC=C(C)C)c(O)c1 [CBG, cannabigerol]",Effect on β-arrestin recruitment induced by agonists,"[1]; 100 nM or 1 μM CBG, 100 nM AEA or JWH133, CB2R",did not affect
same,β-arrestin recruitment,"[1]; CBG alone, 1 nM to 10 μM, CB2R-expressing cells",noteworthy
same,Effect on agonist-induced β-arrestin recruitment,"[2]; 100 nM or 1 μM CBG, 100 nM AEA or ACEA, CB1R",unable to modify
same,β-arrestin recruitment,"[2]; CBG alone, 1 nM to 10 μM, CB1R-expressing cells",small increase
same,"Displacement of [3H]-WIN-55,212-2 from CB1R",[3],not able to displace the radioligand; also recorded: unable to compete
same,Ki,[3],> 30000 nM
same,EC50,[4],0.2 nM
same,IC50,[5],160 nM
same,Effect on agonist actions on DMR read-outs,[6]; [15],"negative modulation of the ACEA effect on ERK1/2 phosphorylation and DMR, and of the AEA effect on DMR read-outs"
same,DMR signal,[6]; [16],additive
same,"Effect on AEA, ACEA and/or JWH133 actions in cAMP-related assays",[7]; [15],"significant effects, always reducing the effect of the agonists"
same,Effect on cAMP level,[7]; [16],additive
same,Ki,"[8]; radioligand 3 nM [3H]-WIN-55,212-2, CHO membranes, read-out: CB2 – Ki",2660 nM
same,Ki,"[8]; radioligand [3H]-WIN-55,212-2, read-out: Ki, competition of [3H]-WIN-55,212-2 binding to CB2R",2700 nM
same,Effect on PPARγ transcriptional activity,[9],may enhance the PPARγ transcriptional activity
same,Effect on agonist actions on β-arrestin recruitment,[10]; [15],negligible
same,β-arrestin recruitment,[10]; [16],negative cross-talk was still evident
same,"EC50 values, transient receptor potential channels of ankyrin type-1",[11]; 2008,micromolar range
same,EC50,"[11]; 2011, read-out: EC50, agonist/desensitizer of TRPA1",700 nM
same,Ki,[12],11300 nM
same,Protection of macrophages against oxidative stress,[13],protection of macrophages against oxidative stress
same,Ki,[14],1050 nM
